Values quoted from earlier work in patent publication US20030100493A1, “Sublingual use of inhibitors in the biosynthesis of cholesterol” (priority 2001, published 2003).

Experiments:
[1] = in vivo
cholesterol synthesis = settings: compared with the other statins
[2] = sublingual; coronary patient

passage of the blood brain barrier [1] | Structure (SMILES) | also measured
do not pass the blood brain barrier | CC(C)n1c(/C=C/C(O)CC(O)CC(=O)O)c(-c2ccc(F)cc2)c2ccccc21 (stereo not shown) [Fluvastatin] | 
 | CC(C)c1nc(N(C)S(C)(=O)=O)nc(-c2ccc(F)cc2)c1/C=C/[C@@H](O)C[C@@H](O)CC(=O)O [Rosuvastatin] | potency as an inhibitor of cholesterol synthesis (cholesterol synthesis): significantly higher potency
 | O=[N+]([O-])OCC(CO[N+](=O)[O-])O[N+](=O)[O-] [Nitroglycerin] | duration of effect (short lasting effect) [2]: five to ten
do not pass the blood brain barrier | CC[C@H](C)C(=O)O[C@H]1C[C@H](O)C=C2C=C[C@H](C)[C@H](CC[C@@H](O)C[C@@H](O)CC(=O)O)[C@H]21 [Pravastatin] | 
